Measured values: patent US5436343A, “Alkenecarboxylic acid compounds” (Adir et Compagnie, priority 1992, dated 1995)
Where a name gives a salt, the structure may show the parent alone.

What was measured:
[1] = test system: Dog platelets (aggregation induced by U46619+adrenaline); experiment: Platelet aggregation in dogs (U46619 + adrenaline, PRP); assay type: cell-based; conditions: Canis lupus familiaris, adrenaline 10 μM then U46619 1.2 μM, 3 min preincubation, 37° C., read-out: IC50 (50% inhibition of the aggregation responses to U46619+adrenaline)
Protocol: Platelet Aggregation in Dogs
After anesthesia of the animal with pentobarbital sodium (30 mg/kg i.v.), arterial blood is withdrawn onto sodium citrate (0.109M) (1 vol. of citrate per 9 vol. of blood). Platelet-rich plasma (PRP) is obtained after centrifugation (20° C.) at 200 g for 10 minutes. The number of platelets in the PRP is 300,000 PL/mm^3 on average. The PRP is stored at the temperature of the room until the time of the test, and is used within 4 hours following withdrawal from the animal.
Dog platelets respond weakly to U46619 alone. […] The PRP is incubated at 37° C. in the presence of the test antagonist for 3 minutes. Aggregation is then obtained by the addition of adrenaline (10 μM) followed by that of U46619 (1.2 μM) 30 seconds later. The effect of the antagonists is measured, and the IC50 is determined as the concentration of the antagonist needed to produce a 50% inhibition of the aggregation responses to U46619+adrenaline.

[2] = molecular target: T1, guinea pig trachea (contractions caused by U46619) (Cavia porcellus, UniProt A0A286Y4I8); experiment: pA2 on guinea pig trachea (U46619-induced contraction); assay type: cell-based; conditions: guinea pig tracheal rings; U46619 10^-9 M to 10^-5 M; antagonist contact 20 minutes
T1 sequence (A0A286Y4I8 1-347): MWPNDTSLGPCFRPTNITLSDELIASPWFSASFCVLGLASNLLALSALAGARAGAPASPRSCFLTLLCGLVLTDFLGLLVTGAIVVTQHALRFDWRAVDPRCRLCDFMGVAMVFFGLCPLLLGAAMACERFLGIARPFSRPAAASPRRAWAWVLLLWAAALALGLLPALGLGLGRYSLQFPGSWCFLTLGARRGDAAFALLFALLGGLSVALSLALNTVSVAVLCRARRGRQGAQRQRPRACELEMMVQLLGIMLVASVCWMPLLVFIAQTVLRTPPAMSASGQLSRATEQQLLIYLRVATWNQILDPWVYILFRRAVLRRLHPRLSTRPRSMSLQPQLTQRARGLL

[3] = test system: tracheal pressure in guinea pigs (bronchoconstriction caused by U46619); experiment: IC50 on tracheal pressure in guinea pigs (U46619-induced bronchoconstriction); assay type: in vivo, guinea pig; conditions: Cavia porcellus, iv, 5 min; anesthetized guinea pigs; U46619 2 μg/kg i.v.; antagonist injected 5 minutes before U46619; read-out: IC50 (dose of antagonist that inhibits by 50% the increase in tracheal pressure caused by U46619)
Source text: ICso on Tracheal Pressure in Guinea Pigs
Male albino guinea pigs (350-400 g) subjected to an 18-hour water diet are anesthetized with ethyl carbamate (1.25 g/kg i.p.). A catheter is introduced into the carotid artery in order to measure the arterial blood pressure by means of a pressure cell. A second catheter is introduced into the jugular vein and is used to inject the pharmacological substances. The trachea is cannulated and the guinea pig is placed in assisted respiration by means of a respirator. The animal's temperature is maintained at 37° C. using a thermostatic blanket. A needle pushed in the tracheal cannula is connected to a pressure cell and enables the tracheal pressure to be recorded.
The guinea pigs are pretreated with d-tubocurarine (1 mg/kg i.v.) and with indomethacin (10 mg/kg i.v.). When injected at a dose of 2 μg/kg i.v., U46619 causes a bronchoconstriction which leads to an increase in tracheal pressure and induces an increase in arterial blood pressure. The responses to U46619 are reversible and reproducible if the injections are carried out every 10 minutes.
The thromboxane receptor antagonists are injected 5 minutes before the injections of U46619. The dose of antagonist that inhibits by 50% the increase in tracheal pressure caused by U46619 is determined (IC50).

[4] = test system: platelets (aggregation induced by U46619, a TXA2 receptor agonist); experiment: Platelet aggregation in rabbits (U46619-induced, PRP); assay type: cell-based; conditions: Oryctolagus cuniculus, 0.05 h, rabbit PRP, U46619 1.2 μM, antagonist 3 min before agonist, 37° C., read-out: IC50 (50% inhibition of the aggregation response induced by U46619)
Protocol: Platelet Aggregation in Rabbits
Rabbits (2-3 kg) are anesthetized with pentobarbital sodium (30 mg/kg i.v.). After cannulation of the left carotid artery, blood is withdrawn onto sodium citrate (0.109M) (1 vol. of citrate per 9 vol. of blood). Platelet-rich plasma (PRP) is obtained by centrifugation (20° C.) at 250 g for 20 minutes, and platelet-poor plasma (PPP) by centrifugation at 1000 g (10 min). The number of platelets (PL) in the PRP is adjusted to 300-350,000 PL/mm^3 by dilution with autologous PPP. The PRP is stored at the temperature of the room until the time of the test, and is used within 4 hours following withdrawal from the animal.
Platelet aggregation is carried out at 37° C. in siliconed glass tubes using an aggregometer. The PRP and the PL are stirred at 1000 rpm (revolutions per minute). In order to study the activity of thromboxane antagonists, the PRP is incubated for 1 min at 37° C., and the antagonist is then added for a period of 3 min before addition of the agonist U46619 (1.2 μM). The final volume in the measuring cell is then 250 μl. The intensity of platelet aggregation is established by taking the maximum amplitude of aggregation plots and is expressed as a percentage light transmission (% T). […]

[5] = test system: platelets (aggregation induced by U46619); experiment: Platelet aggregation in man (U46619-induced, PRP); assay type: cell-based; conditions: human PRP, procedure of Example 22 (U46619 1.2 μM), read-out: IC50 (50% inhibition of platelet aggregation induced by U46619)
Protocol: Platelet aggregation is carried out at 37° C. in siliconed glass tubes using an aggregometer. The PRP and the PL are stirred at 1000 rpm (revolutions per minute). In order to study the activity of thromboxane antagonists, the PRP is incubated for 1 min at 37° C., and the antagonist is then added for a period of 3 min before addition of the agonist U46619 (1.2 μM). The final volume in the measuring cell is then 250 μl. The intensity of platelet aggregation is established by taking the maximum amplitude of aggregation plots and is expressed as a percentage light transmission (% T). The activity of the antagonists is expressed as IC50, that is to say the concentration of the substance which induces a 50% inhibition of the aggregation response induced by U46619.
Platelet Aggregation in Man
Venous blood is obtained from human volunteers who have not taken aspirin for at least 14 days prior to the experiment. The blood is withdrawn onto sodium citrate (0.109M) (1 vol. of citrate to 9 vol. of blood). Platelet-rich plasma (PRP) is obtained after centrifugation (20° C.) at 200 g for 10 minutes. The number of platelets is 250,000 PL/mm^3 on average. The PRP is stored at the temperature of the room until the time of the test, and is used within 2 hours following withdrawal from the subject. The antagonists are tested according to the procedure described in Example 22.

SMILES | IC50 [1] [nM] | Kb [2] [nM] | ED50 [3] [mg/kg] | IC50 [4] [nM] | IC50 [5] [nM]
O=C(O)CCC/C=C\CC1(CCNS(=O)(=O)c2ccc(Cl)cc2)CCCCC1 [Example 1, (5Z)-10-[(4-Chlorophenyl)sulfonamido]-8,8-pentamethylene-5-decenoic acid sodium salt] | 140 | 0.398 | 0.027 |  | 
O=C(O)CC/C=C\CC1(CCNS(=O)(=O)c2ccc(Cl)cc2)CCCCC1 [Example 2, (4Z ) -9-[(4-Chlorophenyl)sulfonamido]-7 , 7-pentamethylene-4-nonenoic acid sodium salt] | 120 | 3.98 | 0.12 | 200 | 200
O=C(O)CC/C=C\CC1(CCNS(=O)(=O)c2ccc(Cl)cc2)CCCC1 [Example 3, (4Z)-9-[(4-Chlorophenyl)sulfonamido]-7,7-tetramethylene-4-nonenoic acid sodium salt] | 60 | 0.501 | 0.019 |  | 80
Cc1ccc(S(=O)(=O)NCCC2(C/C=C\CCCC(=O)O)CCCCC2)cc1 [Example 4, (5Z)-10-[(4-Methylphenyl)sulfonamido]-8,8-pentamethylene-5-decenoic acid sodium salt] | 200 | 3.16 | 0.105 |  | 
O=C(O)CCC/C=C\CC1(CCNS(=O)(=O)c2ccc(Br)cc2)CCCCC1 [Example 5, (5Z)-10-[(4-Bromophenyl)sulfonamido]-8,8-pentamethylene-5-decenoic acid sodium salt] | 140 | 6.31 | 0.066 |  | 
O=C(O)CC/C=C\CC1(CNS(=O)(=O)c2ccc(Cl)cc2)CCCC1 [Example 6, (4Z) -8-[(4-Chlorophenyl)sulfonamido]-7,7-tetramethylene-4-octenoic acid sodium salt] |  | 0.724 | 0.021 | 200 | 80
O=C(O)CC/C=C\CC1(CNS(=O)(=O)c2ccc(Cl)cc2)CCCCC1 [Example 7, (4Z)-8-[(4-Chlorophenyl)sulfonamido]-7,7-pentamethylene-4-octenoic acid sodium salt] |  | 0.398 | 0.02 |  | 300
O=C(O)CCC/C=C\CC1(CNS(=O)(=O)c2ccc(Cl)cc2)CCCC1 [Example 8, (5Z )-9-[(4-Chlorophenyl)sulfonamido]-8,8-tetramethylene-5-nonenoic acid sodium salt] |  | 0.234 | 0.007 |  | 300
O=C(O)CC/C=C\CCC1(CNS(=O)(=O)c2ccc(Cl)cc2)CCCC1 [Example 9, (4Z)-9-[(4-Chlorophenyl)sulfonamido]-8,8-tetramethylene-4-nonenoic acid sodium salt] |  | 0.832 | 0.011 |  | 200
O=C(O)CC/C=C\CCC1(NS(=O)(=O)c2ccc(Cl)cc2)CCCC1 [Example 10, (4Z)-8-[(4-Chlorophenyl)sulfonamido]-8,8-tetramethylene-4-octenoic acid sodium salt] |  | 22.4 |  |  | 
O=C(O)CCC/C=C\CCC1(NS(=O)(=O)c2ccc(Cl)cc2)CCCC1 [Example 11, (5Z)-9-[(4-Chlorophenyl)sulfonamido]-9,9-tetramethylene-5-nonenoic acid sodium salt] |  | 20 |  |  | 
O=C(O)CCC/C=C\CC1(CCNS(=O)(=O)c2ccc(Cl)cc2)CCCC1 [Example 12, (5Z)-10-[(4-Chlorophenyl)sulfonamido]-8,8-tetramethylene-5-decenoic acid sodium salt] | 150 | 1.05 | 0.009 |  | 500
O=C(O)CC/C=C\CCC1(CCNS(=O)(=O)c2ccc(Cl)cc2)CCCC1 [Example 14, (4Z )-10-[(4-Chlorophenyl)sulfonamido]-8,8-tetramethylene-4-decenoic acid sodium salt] |  |  |  |  | 800
O=C(O)CC/C=C\CC1(CCNS(=O)(=O)c2ccc(Cl)cc2)CCc2ccccc21 (stereo not drawn) [sodium salt] |  | 3.98 |  |  | 
